# From paper PMC8145107 (Pharmaceutics, 2021)
# Tests used:
# [1] = tested on: Salmonella typhimurium TA98; conditions: TA98, without S-9 mix; J2 40, NA49 200, positive controls 1-2 μg/plate
# Experimental: To perform the Ames test of J2 and NA49, the number of revertant colonies was counted on each compound-treated plate at the maximum concentration at which the compound was soluble and nontoxic to the S. typhimurium tester strains (Supplementary Material S1). The ratio of the number of revertant colonies in the treated plate to colonies in the vehicle plate. […] For the hERG K^+ channel binding assay of J2 and NA49, the inhibitory activity against the hERG K^+ channel and its ligand was measured using a red fluorescent hERG channel ligand tracer. The final activity was assessed as a decrease in the degree of fluorescence polarization. […]
# The test was conducted with maximum concentration at which the compound was
# soluble and nontoxic to the S. typhimurium tester strains. #Factor = No. of revertant colonies
# of treated plate colonies of vehicle control plate. […]
# [2] = tested on: A549 cells; experiment: Cell death by PI staining / flow cytometry, A549; type: cell-based, human; conditions: cisplatin 3 µM, Gef 30 µM, alone
# Experimental: (§1) Cells were plated in 6-well culture plates at a density of 1 × 10^5 cells/well. Compounds were applied to the cells immediately after seeding. When cells were harvested, cells were washed once with 1× phosphate-buffered saline (PBS), dissociated using Trypsin-EDTA, and centrifuged at 13,000 rpm for 3 min at 4 °C. Next, 1 mL of 1× PBS was added to wash the pellet again. Finally, 1 mL of 1× PBS and 1 μg/mL of propidium iodide (PI) were added to each polystyrene round-bottom tube. Flow cytometric analysis was performed using a FACS flow cytometer (BD Bioscience). To measure cell death, 10^4 cells were counted, and PI-stained cells were analyzed. FACS analysis in accordance with the manufacturer’s instruction. […]
# (§2) Table S1. CI values of NSCLC cell lines.
# (§3) Cell line Combination drug NA 10 µM NA 20 µM
# (§4) CI values were calculated from the data of percent inhibition of cell death by PI staining. Each CI
# (§5) value was analyzed by CompuSyn software. […]
# [3] = tested on: NCI-H460 cells; experiment: Cell death by PI staining / flow cytometry, NCI-H460; type: cell-based, human; conditions: NCI-H460; cisplatin 3 µM, Gef 30 µM, alone
# Experimental: as §1, §2, §3, §4, §5
# [4] = tested on: NCI-H460 cells; experiment: MTT viability assay, NCI-H460; type: cell-based, human; conditions: 24 h
# Experimental: The human NSCLC cell lines of NCI-H460, A549, HCC827, PC9, NCI-H1650, and NCI-H1975 were obtained from the American Type Culture Collection (Rockville, MD, USA). Cells were cultured in RPMI 1640 medium containing 10% FBS, 2 mmol/L L-glutamine, and 100 units/mL of penicillin and streptomycin and maintained at 37 °C in a humidified incubator containing 5% CO2.
# Cell viability against gefitinib-, cisplatin-, and NA49-induced toxicity was determined using an MTT (Amersham Pharmacia Biotech) assay in 96-well plates. […] Next, cells were incubated with 100 µL of 5 mg/mL 3-(4,5-dimethylthiazol-2-yl)-2,5-diphenyltetrazolium bromide (Sigma Aldrich, M5655) for 2 h. After the MTT mixture was removed, 100 µL of DMSO was added to each well, and absorbance at 540 nm was measured using an ELISA plate reader (TECAN, Twinfinite PRO).
# [5] = target: CYP450 3A4 (Homo sapiens, UniProt P08684); experiment: CYP450 enzyme inhibition, 3A4; conditions: 10 μM
# Sequence of CYP450 3A4 (P08684 whole entry): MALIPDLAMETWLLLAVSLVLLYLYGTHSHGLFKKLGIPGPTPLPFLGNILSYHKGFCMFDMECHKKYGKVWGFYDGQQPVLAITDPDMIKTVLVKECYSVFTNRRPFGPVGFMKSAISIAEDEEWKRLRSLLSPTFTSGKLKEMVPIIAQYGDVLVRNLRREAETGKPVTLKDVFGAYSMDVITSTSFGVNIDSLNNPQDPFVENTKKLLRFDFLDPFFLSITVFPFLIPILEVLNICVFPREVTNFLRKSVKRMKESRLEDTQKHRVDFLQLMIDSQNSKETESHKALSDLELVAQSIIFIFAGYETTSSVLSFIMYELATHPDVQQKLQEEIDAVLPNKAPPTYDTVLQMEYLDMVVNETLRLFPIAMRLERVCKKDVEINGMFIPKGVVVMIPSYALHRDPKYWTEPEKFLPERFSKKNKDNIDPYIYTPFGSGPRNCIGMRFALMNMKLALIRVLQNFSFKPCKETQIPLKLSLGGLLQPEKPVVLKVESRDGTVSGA
# [6] = target: CYP450 2C19 (Homo sapiens, UniProt P33261); experiment: CYP450 enzyme inhibition, 2C19; type: in vitro ADME; conditions: 10 μM
# Sequence of CYP450 2C19 (P33261 whole entry): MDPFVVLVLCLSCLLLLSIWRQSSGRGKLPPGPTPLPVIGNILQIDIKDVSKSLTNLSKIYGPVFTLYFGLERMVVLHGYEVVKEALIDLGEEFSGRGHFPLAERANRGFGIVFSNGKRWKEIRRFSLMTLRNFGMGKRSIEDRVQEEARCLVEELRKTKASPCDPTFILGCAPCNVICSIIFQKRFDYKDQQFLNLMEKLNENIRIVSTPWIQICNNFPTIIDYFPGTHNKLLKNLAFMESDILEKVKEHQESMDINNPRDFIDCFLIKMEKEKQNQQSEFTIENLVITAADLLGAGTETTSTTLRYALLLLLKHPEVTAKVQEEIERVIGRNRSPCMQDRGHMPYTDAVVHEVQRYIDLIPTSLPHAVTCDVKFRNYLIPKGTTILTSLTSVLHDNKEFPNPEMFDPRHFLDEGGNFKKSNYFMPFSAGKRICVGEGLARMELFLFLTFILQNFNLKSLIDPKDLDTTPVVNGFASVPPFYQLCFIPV
# Experimental: (§6) Permeability was evaluated with a parallel artificial membrane permeability (PAMPA) assay using an artificially generated lipid-infused membrane.
# [7] = target: CYP2C9 (Homo sapiens, UniProt P11712); experiment: CYP450 enzyme inhibition, 2C9; type: in vitro ADME; conditions: 10 μM
# Sequence of CYP2C9 (P11712 whole entry): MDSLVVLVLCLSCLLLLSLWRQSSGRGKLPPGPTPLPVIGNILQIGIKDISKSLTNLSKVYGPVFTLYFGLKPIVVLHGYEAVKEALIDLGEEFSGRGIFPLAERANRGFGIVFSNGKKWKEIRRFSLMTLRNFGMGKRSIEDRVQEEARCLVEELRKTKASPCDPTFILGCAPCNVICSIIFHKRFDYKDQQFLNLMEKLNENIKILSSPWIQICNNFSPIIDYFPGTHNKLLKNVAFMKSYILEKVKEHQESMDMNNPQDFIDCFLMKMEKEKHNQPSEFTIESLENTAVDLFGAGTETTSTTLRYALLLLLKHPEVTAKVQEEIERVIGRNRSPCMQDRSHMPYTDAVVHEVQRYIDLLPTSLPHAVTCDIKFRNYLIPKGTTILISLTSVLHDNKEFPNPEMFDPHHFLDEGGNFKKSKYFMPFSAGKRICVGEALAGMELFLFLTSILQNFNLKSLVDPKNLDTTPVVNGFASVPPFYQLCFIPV
# Experimental: as §6
# [8] = target: T1, CYP1A2 (Homo sapiens, UniProt P05177); experiment: in vitro
# T1 sequence (P05177 1-516): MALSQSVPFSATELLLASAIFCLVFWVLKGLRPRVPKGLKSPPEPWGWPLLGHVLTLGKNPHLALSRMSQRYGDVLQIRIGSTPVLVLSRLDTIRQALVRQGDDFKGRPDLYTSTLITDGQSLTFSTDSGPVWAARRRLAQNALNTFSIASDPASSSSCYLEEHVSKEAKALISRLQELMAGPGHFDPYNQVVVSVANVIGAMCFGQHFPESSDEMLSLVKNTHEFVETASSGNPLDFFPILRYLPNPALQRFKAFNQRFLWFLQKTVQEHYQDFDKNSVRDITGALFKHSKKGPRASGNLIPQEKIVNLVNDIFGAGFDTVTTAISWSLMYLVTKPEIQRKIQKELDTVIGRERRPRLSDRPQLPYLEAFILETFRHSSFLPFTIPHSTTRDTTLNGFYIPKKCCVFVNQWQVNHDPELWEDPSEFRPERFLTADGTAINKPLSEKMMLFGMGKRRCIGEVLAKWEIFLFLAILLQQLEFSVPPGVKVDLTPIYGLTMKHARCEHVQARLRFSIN
# [9] = target: CYP450 2D6 (Homo sapiens, UniProt P10635); experiment: CYP450 enzyme inhibition, 2D6; type: in vitro ADME; conditions: 10 μM
# Sequence of CYP450 2D6 (P10635 whole entry): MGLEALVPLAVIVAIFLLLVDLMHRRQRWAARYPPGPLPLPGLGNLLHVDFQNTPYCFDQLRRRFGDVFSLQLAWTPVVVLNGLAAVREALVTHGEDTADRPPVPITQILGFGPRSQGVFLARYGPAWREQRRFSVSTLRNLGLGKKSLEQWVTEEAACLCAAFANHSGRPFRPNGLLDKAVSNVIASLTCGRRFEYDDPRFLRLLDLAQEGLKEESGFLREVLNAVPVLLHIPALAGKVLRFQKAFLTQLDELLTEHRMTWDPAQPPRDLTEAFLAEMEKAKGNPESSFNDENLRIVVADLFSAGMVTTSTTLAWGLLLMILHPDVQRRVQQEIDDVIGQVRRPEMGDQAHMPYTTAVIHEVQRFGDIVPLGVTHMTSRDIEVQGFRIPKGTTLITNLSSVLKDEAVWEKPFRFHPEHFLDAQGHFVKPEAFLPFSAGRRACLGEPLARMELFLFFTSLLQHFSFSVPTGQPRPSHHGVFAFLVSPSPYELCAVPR
compound,measurement,setting,value
"O=[N+]([O-])c1ccc2c(c1)Cc1ccccc1-2 [2-nitrofluorene, reference compound]",Factor (revertant colonies of treated plate/vehicle control plate),[1],28.9
same,Revertant colonies/plate (Mean ± S.D.),[1],462 ± 24 colonies/plate
"N.N.[Cl][Pt][Cl] [Cisplatin, cisplatin, reference compound]",Cell death,[2],less than 30%
same,Cell death,[3],less than 30%
same,IC50,[4],11.7 µM
"COc1cc2ncnc(Nc3ccc(F)c(Cl)c3)c2cc1OCCCN1CCOCC1 [Gef, Gefitinib, reference compound]",Cell death,[2],less than 30%
same,Cell death,[3],less than 30%
"OCc1ncc2n1-c1ccc(Cl)cc1C(c1ccccc1F)=NC2 [OH-midazolam, reference compound]","% inhibition of CYP450 3A4, positive control",[5],92.5%
"COc1ccc2nc([S+]([O-])Cc3ncc(CO)c(OC)c3C)[nH]c2c1 (centres unmarked) [OH-omeprazole, reference compound]","% inhibition of CYP450 2C19, positive control",[6],93.2%
"CCCCNC(=O)NS(=O)(=O)c1ccc(CO)cc1 [OH-tolbutamide, reference compound]","% inhibition of CYP450 2C9, positive control",[7],91.7%
CC(=O)Nc1ccc(O)cc1 [acetaminophen],inhibition at 10 μM,[8],92.4%
"CN1CC[C@@]23CCCC[C@@H]2[C@@H]1Cc1ccc(O)cc13 [dextrophan, reference compound]","% inhibition of CYP450 2D6, positive control",[9],94.0%
"[N-]=[N+]=[N-].[Na+] [sodium azide, reference compound]",Factor (revertant colonies of treated plate/vehicle control plate),[1],4.1
same,Revertant colonies/plate (Mean ± S.D.),[1],441 ± 16 colonies/plate
